# Source: patent US20120149718A1, “Amido Compounds” (priority 2010, published 2012)
# Columns and labels:
# [1] = biological target: T1, human P2X7 (Homo sapiens, UniProt Q99572); test: Intracellular Calcium Flux (FLIPR) Assay; format: cell-based; details: 1321N1 cells stably expressing full length human P2X7; agonist 100 μM BzATP; fluo-3 calcium flux; read-out: FLIPR pIC50 hP2X7-1321n1 (converted)
# T1 construct: 1321N1 cells stably expressing the full length human P2X7 gene (1321N1-hP2X7)
# T1 sequence (Q99572 1-595): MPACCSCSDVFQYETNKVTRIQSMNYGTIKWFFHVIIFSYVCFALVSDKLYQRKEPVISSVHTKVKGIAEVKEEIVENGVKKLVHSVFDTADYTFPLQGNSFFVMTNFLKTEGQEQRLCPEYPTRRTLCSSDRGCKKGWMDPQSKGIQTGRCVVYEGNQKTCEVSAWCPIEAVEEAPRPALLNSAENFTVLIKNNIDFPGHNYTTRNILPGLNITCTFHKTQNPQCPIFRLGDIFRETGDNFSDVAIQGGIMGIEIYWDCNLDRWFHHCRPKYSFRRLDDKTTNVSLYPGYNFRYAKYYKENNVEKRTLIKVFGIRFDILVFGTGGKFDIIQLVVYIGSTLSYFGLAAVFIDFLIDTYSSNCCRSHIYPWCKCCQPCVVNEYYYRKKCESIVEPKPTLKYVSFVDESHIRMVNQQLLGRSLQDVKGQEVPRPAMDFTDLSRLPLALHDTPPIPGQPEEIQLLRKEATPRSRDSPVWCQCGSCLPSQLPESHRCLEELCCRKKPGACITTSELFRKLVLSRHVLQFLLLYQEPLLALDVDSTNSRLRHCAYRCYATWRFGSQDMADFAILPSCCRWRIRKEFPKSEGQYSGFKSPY
# Experimental: Stock solutions of compounds were prepared from powders as a 10 mM DMSO stock solution. These solutions were stored at RT during the two week period of these experiments to prevent freeze-thaw of the DMSO stocks. The DMSO stocks were added to the appropriate assay buffer at a concentration of 10 μM, and then diluted serially to the final concentrations that were tested. No observable precipitate was formed at any time during this process. The aqueous solutions of compounds as well as ATP (Sigma A7699) and BzATP (Sigma B6396) were prepared fresh for each day of experiment.
# 1321N1 cells stably expressing the full length human P2X7 gene (1321N1-hP2X7) and HEK293 cells stably expressing the full length rat P2X7 gene (HEK293-rP2X7) were obtained from the Roche Cell Culture Facility. 1321N1-hP2X7 cells were grown in Dulbecco's Modified Eagle's Medium (DMEM) high glucose supplemented with 10% FBS and 250 μg/mL G418. HEK293-rP2X7 cells were grown in DMEM/F-12 supplemented with 10% FBS, 1 mM CaCl2, 2 mM MgCl2, 2 mM L-Glutamine and 500 μg/ml G418. Cells were split such that they never became >70% confluent.
# On the day prior to the experiment, 1321N1-hP2X7 or HEK293-rP2X7 cells were released into suspension with calcium-free PBS+Versene and washed by centrifugation with calcium-free PBS to remove the Versene. Cells were resuspended in growth medium at a density of 2.5×10^5 cells/mL and seeded into black walled, clear bottom 96 well plates (50,000 cells/well) approximately 18 hr prior to intracellular calcium flux experiments.
# On the day of the experiment, plates were washed with FLIPR buffer (calcium- and magnesium-free Hank's Balanced Salt Solution (HBSS) supplemented with 10 mM Hepes, 2.5 mM probenecid and 2 mM calcium chloride) using a BIO-TEK 96 channel plate washer and incubated with […] fluo-3 dye at 37° C. for one hr. The dye was then removed by plate washing and the cells were allowed to equilibrate for 20 min at room temperature with antagonist or vehicle (FLIPR buffer). Agonist (100 μM BzATP final concentration for hP2X7; 5 μM BzATP final concentration or rP2X7) was added online with the FLIPR and fluorescence measurements made at 1 sec intervals for 60 sec followed by 3 sec intervals for a further 4 min (5 min total). A final addition of 5 μM ionomycin was made and the maximal BzATP-evoked fluorescence normalized to the maximal ionomycin-evoked fluorescence.
IC50 [1],melting point,Structure (SMILES)
234 nM,261 to 263.7 °C,"CS(=O)(=O)c1ccc(C(Cc2ccc(F)cc2)C(=O)Nc2nc3ncccc3o2)cc1 (centres unmarked) [Compound I-18, 3-(4-Fluoro-phenyl)-2-(4-methanesulfonyl-phenyl)-N-oxazolo[4,5-b]pyridin-2-yl-propionamide]"
1120 nM,187.7 to 188.4 °C,"CSc1cnc(NC(=O)C(Cc2ccc(F)cc2)c2ccc(S(C)(=O)=O)cc2)cn1 (centres unmarked) [Compound I-14, 3-(4-Fluoro-phenyl)-2-(4-methanesulfonyl-phenyl)-N-(5-methylsulfanyl-pyrazin-2-yl)-propionamide]"
1170 nM,184 to 185 °C,"Cc1ccccc1CC(C(=O)Nc1nc2cc(Cl)ccc2o1)c1ccc(S(C)(=O)=O)cc1 (centres unmarked) [Compound I-3, N-(5-Chloro-benzooxazol-2-yl)-2-(4-methanesulfonyl-phenyl)-3-o-tolyl-propionamide]"
87.1 nM,99 to 100 °C,"CS(=O)(=O)c1ccc(C(Cc2ccccc2F)C(=O)Nc2nc3ccccc3o2)cc1 (centres unmarked) [Compound I-8, N-Benzooxazol-2-yl-3-(2-fluoro-phenyl)-2-(4-methanesulfonyl-phenyl)-propionamide]"
